Assays:
ANGPTL4 gene expression = experiment: Stimulus-induced ANGPTL4 expression in human fibroblasts; assay type: cell-based
GST-PPAR beta/delta LBD = target: T1, GST-PPAR beta/delta LBD (Homo sapiens, UniProt Q03181); experiment: Inhibition of compound 1-induced binding of corepressor peptide SMRT-ID2, TR-FRET; assay type: biochemical; conditions: 1 μM test substance, increasing concentrations of inverse agonist compound 1
T1 construct: GST-PPAR beta/delta LBD (GST=glutathione S-transferase); purchased Invitrogen, Darmstadt, Germany
T1 sequence (Q03181 211-439 limits assumed): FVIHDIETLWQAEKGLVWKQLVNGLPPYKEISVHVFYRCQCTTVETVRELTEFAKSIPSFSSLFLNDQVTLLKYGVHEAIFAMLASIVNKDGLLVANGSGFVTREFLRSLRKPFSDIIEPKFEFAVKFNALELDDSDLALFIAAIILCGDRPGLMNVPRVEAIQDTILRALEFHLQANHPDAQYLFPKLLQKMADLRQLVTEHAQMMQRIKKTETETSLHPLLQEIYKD
Method: FIG. 3: Inhibition of agonist-induced co-activator peptide binding (A) and inverse agonist compound 1-induced corepressor peptide binding (B) by the substance of this invention compound 5. • The recruitment of the co-activator or corepressor peptide, respectively, is determined in a TR-FRET assay. As co-activator peptide, C33 is utilized, as corepressor peptide SMRT-ID2. The experiment is performed with a constant concentration of 1 μM of the substance of this invention compound 5 and increasing concentrations of the agonist L165041 (A) or the inverse agonist compound 1 (B), respectively.
C) The inhibition of the recruitment of co-activator peptide C33 known to the expert in this field mediated by PPAR beta/delta agonist L165,041 or the inhibition of the inverse agonist inventive compound 1-mediated binding of the corepressor peptide SMRT-ID2 to GST-PPAR beta/delta LBD by the substance of this invention compound 5 (1 μM) was also determined by TR-FRET measurements. Both is shown in FIGS. 3 A and B in dependency of the concentration of the agonist (A) and the inverse agonist (B), respectively.

SMILES | induction of ANGPTL4 expression by TGF-beta1, TGF-beta2, dexamethasone or TPA (ANGPTL4 gene expression) | inhibition of compound 1-mediated interaction of LBD with corepressor peptide SMRT-ID2 (GST-PPAR beta/delta LBD)
CCCCCCNc1ccc(NS(=O)(=O)c2ccsc2C(=O)OC)c(OC)c1 [compound 1, methyl 3-(N-(4-(hexylamino)-2-methoxyphenyl)sulfamoyl)thiophene-2-carboxylate] | significantly be reduced | 
COC(=O)c1sccc1S(=O)(=O)Nc1ccc(NC(C)(C)C)cc1OC [compound 5, methyl 3-(N-(4-(tert-butylamino)-2-methoxyphenyl)sulfamoyl)thiophene-2-carboxylate] |  | prevents

Reference: US20150018411A1, “COMPOUNDS AS PPAR BETA/DELTA INHIBITORS FOR TREATING PPAR BETA/DELTA-MEDIATED DISEASES” (PHILIPPS-UNIVERSITAT MARBURG, priority 2011, published 2015)
